Measurements as given in patent publication US20240041823A1, “USE OF MYCOLACTONE (MLN) AND DERIVATIVES THEREOF FOR TREATMENT OF MICROBIAL INFECTIONS” (priority 2022, published 2024).

Tested on: SARS-CoV-2 variants of concern (VOC)
Assay type: cell-based
Conditions: plaque assay

## mycolactone [MLN]
  IC50 fold lower than Remdesivir: 9-18 fold
